The values below come from patent US20050282743A1, “Molecular interactions in cells” (Arbor Vita Corporation, priority 2001, published 2005).

Ends that are not written are not given here. * marks the point of attachment. Biotin = O=C1N[C@H]2[C@H](CS[C@H]2CCCCC(=O)*)N1

Assay [1] concerns PDZ-domain polypeptide (GST/PDZ fusion protein). Kind of assay: G assay (G0): biotinylated PL peptide 20 uM binding to immobilized GST/PDZ fusion protein. The settings on record: G Assay of Example 3. Here is the method:
“G Assay”—Detection of PDZ-Ligand Binding Using Immobilized PDZ-Domain Fusion Polypeptide
In other assays, a GST/PDZ fusion protein is immobilized on a surface (“G” assay). The binding of labeled PL peptide (e.g., as listed in TABLE 8) to this surface is then measured. Typically, the assay is carried out as follows:
(1) A PDZ-domain polypeptide is bound to a surface, e.g. a protein binding surface. In a preferred embodiment, a GST/PDZ fusion protein containing one or more PDZ domains is bound to a polystyrene 96-well plate. […] In some instances, the GST/PDZ fusion protein is bound via an anti-GST antibody that is coated onto the 96-well plate. Adequate binding to the plate can be achieved when: • a. […]
(3) The binding of the biotinylated peptide to the GST/PDZ fusion protein surface can be detected using a variety of methods and detectors known to one of skill in the art. […] The reaction of the HRP and its substrate is terminated by addition of 100 uL per well of 1M sulfuric acid, and the absorbance of each well of the plate is read at 450 nm.
(4) Specific binding of a PL peptide and a PDZ domain polypeptide is determined by comparing the signal from the well(s) in which the PL peptide and PDZ domain polypeptide are combined, with the background signal(s). […]

The next assay addresses T1, Mint 1 (PDZ Domain 1, 2) (Homo sapiens, UniProt Q02410).
T1 construct: When more than one PDZ domain was cloned, the DNA portion cloned represents the PDZ domains and the cDNA portion located between individual domains; made in house; host or cells: E. coli (DH5alpha, BL21 or JM109)
T1 sequence (Q02410 652-828 limits assumed): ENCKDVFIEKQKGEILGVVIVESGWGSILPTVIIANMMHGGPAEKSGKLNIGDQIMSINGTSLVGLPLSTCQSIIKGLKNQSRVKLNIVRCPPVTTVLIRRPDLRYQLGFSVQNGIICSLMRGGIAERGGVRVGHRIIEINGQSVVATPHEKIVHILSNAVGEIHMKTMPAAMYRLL
Nature of the assay: G' assay, TABLE 12. Format: binding. The settings on record: A450 nm class of biotinylated PL peptide bound; 0 in conc columns = peptide 10 uM, protein 5 ug/ml. Here is the method:
(§1) The third column labeled “Peptide Optimal Concentration” in the tables is a number reflective of the binding interaction between the PL protein and PDZ protein. […] The column labeled “Protein Optimal Concentration” refers to the protein concentration used to assay PL interaction (in ug/ml); a ‘0’ is indicative of 5 ug/ml protein concentration; any other value represents the concentration (in ug/ml) used to determine the dissociation constant for a given interaction.
(§2) Finally, the seventh column labeled “Classification” is another measure of the level of binding. In particular, it provides an absorbance value at 450 nm which indicates the amount of PL peptide bound to the PDZ protein. The following numerical values have the following meanings: ‘1’—A450 nm 0-1; ‘2’—A450 nm 1-2; ‘3’—A450 nm 2-3; ‘4’—A450 nm 3-4; ‘5’—A450 nm of 4 more than 2× repeated; ‘0’—A450 nm 0, i.e., not found to interact. Thus, higher numbers indicate stronger interactions.
(§3) For convenience, the assay conditions described in this section are referred to as the “G′ assay” and the “G″ assay,” with the specific conditions described in the preceding section on G assays being referred to as the “G^0 assay.” The “G′ assay” is identical to the “G^0 assay” except at step (2) the peptide concentration is 10 uM instead of 20 uM. […] Correspondingly, it slightly increases the certainty that detected interactions are of sufficient affinity and half-life to be of biological importance and useful therapeutic targets.

A further assay deals with T2, KIAA807 (Homo sapiens, UniProt Q6P0Q8).
T2 construct: made in house; host or cells: E. coli (DH5alpha, BL21 or JM109)
T2 sequence (Q6P0Q8 1104-1192 limits assumed): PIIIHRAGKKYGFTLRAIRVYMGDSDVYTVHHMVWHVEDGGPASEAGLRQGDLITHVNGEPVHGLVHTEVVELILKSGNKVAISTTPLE
Kind of assay: G' assay, TABLE 12. In kind it is binding. The settings on record: A450 nm class of biotinylated PL peptide bound; 0 in conc columns = peptide 10 uM, protein 5 ug/ml. Here is the method:
as §1, §2, §3

The test system of assay [2] is PDZ protein (GST-PDZ fusion). Kind of assay: G' assay (10 uM PL peptide), results of TABLE 7 and TABLE 12. Format: binding. A digest of the protocol:
(§4)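 Binding classes derive from A450 nm of bound biotin-tagged PL peptide. A score of 5 needs A450 above 4 in more than two repeats.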

Assay [3] addresses T3, PDZ protein (GST-PDZ fusion) (Homo sapiens, UniProt Q02410).
T3 construct: made in house; host or cells: E. coli (DH5alpha, BL21 or JM109)
T3 sequence (Q02410 1-837): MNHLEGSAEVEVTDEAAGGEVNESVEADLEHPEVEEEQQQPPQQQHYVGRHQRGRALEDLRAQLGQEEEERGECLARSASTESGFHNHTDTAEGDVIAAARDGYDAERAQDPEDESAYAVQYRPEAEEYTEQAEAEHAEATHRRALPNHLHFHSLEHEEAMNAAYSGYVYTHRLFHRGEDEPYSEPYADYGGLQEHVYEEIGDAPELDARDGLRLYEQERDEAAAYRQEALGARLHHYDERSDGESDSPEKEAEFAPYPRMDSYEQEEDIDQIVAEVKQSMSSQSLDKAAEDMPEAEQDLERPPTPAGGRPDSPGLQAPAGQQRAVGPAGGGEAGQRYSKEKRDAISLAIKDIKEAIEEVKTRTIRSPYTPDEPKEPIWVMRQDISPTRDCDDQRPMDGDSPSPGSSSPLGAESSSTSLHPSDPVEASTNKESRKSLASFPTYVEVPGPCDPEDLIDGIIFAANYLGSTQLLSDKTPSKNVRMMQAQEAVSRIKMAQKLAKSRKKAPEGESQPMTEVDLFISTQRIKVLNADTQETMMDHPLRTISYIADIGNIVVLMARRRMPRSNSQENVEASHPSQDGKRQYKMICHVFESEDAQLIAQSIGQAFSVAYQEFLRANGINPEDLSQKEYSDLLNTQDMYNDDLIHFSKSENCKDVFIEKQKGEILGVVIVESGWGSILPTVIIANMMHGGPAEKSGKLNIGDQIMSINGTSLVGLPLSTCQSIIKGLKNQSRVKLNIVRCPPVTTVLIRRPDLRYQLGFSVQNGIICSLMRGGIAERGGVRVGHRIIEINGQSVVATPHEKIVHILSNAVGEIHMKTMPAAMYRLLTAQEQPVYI
Described as above. Format: binding. The settings on record: PDZ Mint 1, PDZ Domain 2. A digest of the protocol: as §4

Assay [4] concerns the target T4, PDZ protein (GST-PDZ fusion) (Homo sapiens, UniProt Q9Y2H9).
T4 construct: made in house; host or cells: E. coli (DH5alpha, BL21 or JM109)
The assay is described as above. In kind it is binding. To be noted: PDZ KIAA0973, PDZ Domain 1. The method in brief:
as §4

The target of assay [5] is T5, KIAA0807(S) (PDZ Domain 1) (Homo sapiens, UniProt Q6P0Q8).
T5 construct: made in house; host or cells: E. coli (DH5alpha, BL21 or JM109)
T5 sequence (Q6P0Q8 with tags, fused parts or gaps): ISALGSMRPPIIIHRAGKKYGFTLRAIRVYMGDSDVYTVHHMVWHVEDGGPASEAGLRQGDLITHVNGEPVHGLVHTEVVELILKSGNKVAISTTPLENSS
Kind of assay: G' assay and Kd titration, TABLE 12. The settings on record: A450 nm class of biotinylated PL peptide bound; 0 in conc columns = peptide 10 uM, protein 5 ug/ml. Format: binding. As to the method:
as §1, §2
For convenience, the assay conditions described in this section are referred to as the “G′ assay” and the “G″ assay,” with the specific conditions described in the preceding section on G assays being referred to as the “G^0 assay.” The “G′ assay” is identical to the “G^0 assay” except at step (2) the peptide concentration is 10 uM instead of 20 uM.

For assay [6], the target named is T6, PDZ protein (GST-PDZ fusion) (Homo sapiens, UniProt O14907).
T6 construct: made in house; host or cells: E. coli (DH5alpha, BL21 or JM109)
T6 sequence (O14907 1-124): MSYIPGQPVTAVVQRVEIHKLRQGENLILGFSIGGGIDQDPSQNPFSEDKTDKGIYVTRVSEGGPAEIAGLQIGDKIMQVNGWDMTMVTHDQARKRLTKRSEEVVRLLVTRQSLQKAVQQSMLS
Kind of assay: G' assay (10 uM PL peptide), results of TABLE 7 and TABLE 12. The settings on record: PDZ TIP1, PDZ Domain 1. Format: binding. A digest of the protocol: as §4

T4 sequence (Q9Y2H9 whole entry, the tested form may be a part): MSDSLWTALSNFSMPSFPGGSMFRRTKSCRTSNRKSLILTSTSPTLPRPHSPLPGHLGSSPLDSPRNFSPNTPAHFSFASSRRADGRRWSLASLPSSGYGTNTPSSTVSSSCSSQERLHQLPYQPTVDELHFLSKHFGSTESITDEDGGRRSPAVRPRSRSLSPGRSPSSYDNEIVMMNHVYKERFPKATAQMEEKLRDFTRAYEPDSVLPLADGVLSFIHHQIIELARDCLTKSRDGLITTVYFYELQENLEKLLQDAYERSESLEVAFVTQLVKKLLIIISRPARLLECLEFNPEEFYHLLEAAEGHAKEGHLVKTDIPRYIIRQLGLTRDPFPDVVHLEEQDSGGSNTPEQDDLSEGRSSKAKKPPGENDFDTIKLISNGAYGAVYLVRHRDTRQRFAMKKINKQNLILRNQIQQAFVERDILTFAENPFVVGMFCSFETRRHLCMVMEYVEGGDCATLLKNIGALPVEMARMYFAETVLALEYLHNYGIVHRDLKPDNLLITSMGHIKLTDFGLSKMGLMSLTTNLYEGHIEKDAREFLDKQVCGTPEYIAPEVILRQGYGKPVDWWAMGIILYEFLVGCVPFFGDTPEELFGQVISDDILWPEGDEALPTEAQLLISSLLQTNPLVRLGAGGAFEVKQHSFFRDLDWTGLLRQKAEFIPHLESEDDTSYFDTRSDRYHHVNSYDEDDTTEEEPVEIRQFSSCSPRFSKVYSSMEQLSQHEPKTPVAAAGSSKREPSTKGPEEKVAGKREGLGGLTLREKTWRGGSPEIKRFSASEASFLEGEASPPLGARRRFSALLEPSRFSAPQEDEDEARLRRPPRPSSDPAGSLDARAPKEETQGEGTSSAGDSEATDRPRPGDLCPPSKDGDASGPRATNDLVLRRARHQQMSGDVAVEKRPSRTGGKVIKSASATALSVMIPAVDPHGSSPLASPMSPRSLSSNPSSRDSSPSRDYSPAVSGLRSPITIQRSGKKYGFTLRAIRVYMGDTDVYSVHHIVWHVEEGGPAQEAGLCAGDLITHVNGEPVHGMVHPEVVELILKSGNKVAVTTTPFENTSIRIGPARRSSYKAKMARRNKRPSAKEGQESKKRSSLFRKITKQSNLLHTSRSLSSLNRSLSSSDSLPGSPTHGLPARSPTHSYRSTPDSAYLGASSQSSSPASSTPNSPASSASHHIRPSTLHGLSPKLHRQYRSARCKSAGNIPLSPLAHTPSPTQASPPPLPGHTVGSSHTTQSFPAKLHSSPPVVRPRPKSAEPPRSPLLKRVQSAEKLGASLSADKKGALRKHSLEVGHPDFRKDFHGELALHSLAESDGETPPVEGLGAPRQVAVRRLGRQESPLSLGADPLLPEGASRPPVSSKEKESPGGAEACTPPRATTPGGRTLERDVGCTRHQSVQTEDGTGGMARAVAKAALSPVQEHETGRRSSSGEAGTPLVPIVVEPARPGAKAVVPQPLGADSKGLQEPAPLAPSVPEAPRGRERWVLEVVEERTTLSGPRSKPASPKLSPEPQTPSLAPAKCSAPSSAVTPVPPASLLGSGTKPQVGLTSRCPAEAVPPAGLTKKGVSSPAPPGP

As to “HAMNAAPRAMENAPALRTSH (Biotin-HAMNAAPRAMENAPALRTSH) [HPV E6 57]”, the “binding of E6 C-terminal peptides to a variety of PDZ domains” value in assay [1] was “did not bind any of the PDZ domains tested”.

“KKGTYLTDETHREVKFTSL (Biotin-KKGTYLTDETHREVKFTSL) [CD46]”: the Classification is listed as 1 (A450 nm 0-1) in the assay with Mint 1 (PDZ Domain 1, 2); 4 (A450 nm 3-4) in the assay with KIAA807; 1 (A450 nm 0-1) in assay [2] (PDZ BAI-1, PDZ Domain 5); 1 (A450 nm 0-1) in assay [3]; 2 (A450 nm 1-2) in assay [4]; 5 (A450 nm of 4 more than 2× repeated) in assay [5]. In assay [2] (as cited in the text from TABLE 7), the “PDZ proteins bound by the PL (TABLE 7)” value was “KIAA0973, Mint 1, KIAA807, BAI-1, KIA0807(S)”.

Consider GGGRGSGLAGGSRGGGQSRQ [HPV E6 77], for which the Classification in assay [2] (PDZ BAI-1, PDZ Domain 2) is listed as 0 (A450 nm 0, i.e., not found to interact); in assay [6], 0 (A450 nm 0, i.e., not found to interact). The “binding of E6 C-terminal peptides to a variety of PDZ domains” value in assay [1] was “did not bind any of the PDZ domains tested”.
